From US8802597B2, “Herbicidal pyrimidines” (E I du Pont de Nemours and Company, priority 2003, dated 2014)

How the values were obtained:
Assay in all cases: Test A pre/postemergence
Format in all cases: in vivo
[1] = tested on: crabgrass (Digitaria sanguinalis)
Method: (§1) Seeds of barnyardgrass (Echinochloa crus-galli), crabgrass (Digitaria sanguinalis), giant foxtail (Setaria faberi), morningglory (Ipomoea spp.), redroot pigweed (Amaranthus retroflexus) and velvetleaf (Abutilon theophrasti) were planted into a blend of loam soil and sand and treated preemergence with a directed soil spray using test chemicals formulated in a non-phytotoxic solvent mixture which included a surfactant. At the same time these species were also treated with postemergence applications of test chemicals formulated in the same manner.
(§2) Plants ranged in height from 2 to 10 cm and were in the 1- to 2-leaf stage for the postemergence treatment. Treated plants and untreated controls were maintained in a greenhouse for approximately ten days, after which time all treated plants were compared to untreated controls and visually evaluated for injury. Plant response ratings, summarized in Table A, are based on a 0 to 100 scale where 0 is no effect and 100 is complete control. A dash (-) response means no test results.

[2] = tested on: morningglory (Ipomoea spp.)
Method: as §1, §2

[3] = tested on: barnyardgrass (Echinochloa crus-galli)
Method: as §1, §2

[4] = tested on: giant foxtail (Setaria faberi)
Method: as §1, §2

[5] = tested on: velvetleaf (Abutilon theophrasti)
Method: as §1, §2

[6] = tested on: redroot pigweed (Amaranthus retroflexus)
Method: as §1, §2

[7] = Postemergence, 125 g ai/ha, 0 to 100 scale (0 no effect, 100 complete control)
[8] = Postemergence, 500 g ai/ha, 0 to 100 scale (0 no effect, 100 complete control)
[9] = Preemergence, 125 g ai/ha, 0 to 100 scale where 0 is no effect and 100 is complete control, approximately ten days
[10] = Preemergence, 500 g ai/ha, 0 to 100 scale where 0 is no effect and 100 is complete control, approximately ten days

COC(=O)COc1nc(C2CC2)nc(N)c1Cl [Compound 112]
20: Plant response rating, Velvetleaf [5, 7] | Plant response rating, Pigweed [6, 7]
55: Plant response rating, Morningglory [2, 7]
10: Plant response rating, Crabgrass [1, 10] | Plant response rating, Morningglory [2, 10] | Plant response rating, Barnyardgrass [3, 10] | Plant response rating, Velvetleaf [5, 10] | Plant response rating, Pigweed [6, 9]
0: Plant response rating, Crabgrass [1, 7] | Plant response rating, Crabgrass [1, 8] | Plant response rating, Crabgrass [1, 9] | Plant response rating, Morningglory [2, 9] | Plant response rating, Barnyardgrass [3, 7] | Plant response rating, Barnyardgrass [3, 8] | Plant response rating, Barnyardgrass [3, 9] | Plant response rating, Foxtail, Giant [4, 7] | Plant response rating, Foxtail, Giant [4, 8] | Plant response rating, Foxtail, Giant [4, 9] | Plant response rating, Foxtail, Giant [4, 10] | Plant response rating, Velvetleaf [5, 9]
30: Plant response rating, Pigweed [6, 10]
50: Plant response rating, Morningglory [2, 8]
40: Plant response rating, Pigweed [6, 8]
35: Plant response rating, Velvetleaf [5, 8]

CCOC(=O)COc1nc(-c2ccc(Cl)cc2)nc(N)c1Cl [Compound 114]
55: Plant response rating, Morningglory [2, 8] | Plant response rating, Pigweed [6, 8]
5: Plant response rating, Velvetleaf [5, 8]
40: Plant response rating, Morningglory [2, 7]
45: Plant response rating, Pigweed [6, 7]
0: Plant response rating, Crabgrass [1, 7] | Plant response rating, Crabgrass [1, 8] | Plant response rating, Crabgrass [1, 9] | Plant response rating, Crabgrass [1, 10] | Plant response rating, Morningglory [2, 9] | Plant response rating, Morningglory [2, 10] | Plant response rating, Barnyardgrass [3, 7] | Plant response rating, Barnyardgrass [3, 8] | Plant response rating, Barnyardgrass [3, 9] | Plant response rating, Barnyardgrass [3, 10] | Plant response rating, Foxtail, Giant [4, 7] | Plant response rating, Foxtail, Giant [4, 8] | Plant response rating, Foxtail, Giant [4, 9] | Plant response rating, Foxtail, Giant [4, 10] | Plant response rating, Velvetleaf [5, 7] | Plant response rating, Velvetleaf [5, 9] | Plant response rating, Velvetleaf [5, 10] | Plant response rating, Pigweed [6, 9] | Plant response rating, Pigweed [6, 10]

CCOC(=O)COc1nc(C2CC2)nc(N)c1Cl [Compound 115]
5: Plant response rating, Velvetleaf [5, 9]
30: Plant response rating, Velvetleaf [5, 7] | Plant response rating, Pigweed [6, 9]
40: Plant response rating, Velvetleaf [5, 8] | Plant response rating, Pigweed [6, 10]
20: Plant response rating, Barnyardgrass [3, 10]
45: Plant response rating, Pigweed [6, 8]
35: Plant response rating, Morningglory [2, 7] | Plant response rating, Morningglory [2, 10]
25: Plant response rating, Morningglory [2, 9]
60: Plant response rating, Morningglory [2, 8]
0: Plant response rating, Crabgrass [1, 7] | Plant response rating, Crabgrass [1, 8] | Plant response rating, Crabgrass [1, 9] | Plant response rating, Barnyardgrass [3, 7] | Plant response rating, Barnyardgrass [3, 8] | Plant response rating, Barnyardgrass [3, 9] | Plant response rating, Foxtail, Giant [4, 7] | Plant response rating, Foxtail, Giant [4, 8] | Plant response rating, Foxtail, Giant [4, 9] | Plant response rating, Foxtail, Giant [4, 10]
10: Plant response rating, Crabgrass [1, 10] | Plant response rating, Velvetleaf [5, 10] | Plant response rating, Pigweed [6, 7]

Nc1nc(C2CC2)nc(OCC(=O)[O-])c1Cl.[Na+] [Compound 116]
0: Plant response rating, Crabgrass [1, 7] | Plant response rating, Crabgrass [1, 8] | Plant response rating, Crabgrass [1, 9] | Plant response rating, Barnyardgrass [3, 7] | Plant response rating, Barnyardgrass [3, 8] | Plant response rating, Foxtail, Giant [4, 7] | Plant response rating, Foxtail, Giant [4, 8] | Plant response rating, Foxtail, Giant [4, 9] | Plant response rating, Foxtail, Giant [4, 10] | Plant response rating, Velvetleaf [5, 9]
60: Plant response rating, Morningglory [2, 8]
40: Plant response rating, Morningglory [2, 7] | Plant response rating, Velvetleaf [5, 8]
15: Plant response rating, Velvetleaf [5, 7] | Plant response rating, Velvetleaf [5, 10]
10: Plant response rating, Crabgrass [1, 10] | Plant response rating, Barnyardgrass [3, 9]
30: Plant response rating, Morningglory [2, 9] | Plant response rating, Pigweed [6, 9]
20: Plant response rating, Barnyardgrass [3, 10] | Plant response rating, Pigweed [6, 7]
50: Plant response rating, Morningglory [2, 10] | Plant response rating, Pigweed [6, 10]
35: Plant response rating, Pigweed [6, 8]

COC(=O)COc1nc(-c2ccc(Cl)cc2)nc(N)c1Cl [Compound 119]
10: Plant response rating, Barnyardgrass [3, 10] | Plant response rating, Velvetleaf [5, 8]
0: Plant response rating, Crabgrass [1, 7] | Plant response rating, Crabgrass [1, 8] | Plant response rating, Crabgrass [1, 9] | Plant response rating, Crabgrass [1, 10] | Plant response rating, Morningglory [2, 9] | Plant response rating, Morningglory [2, 10] | Plant response rating, Barnyardgrass [3, 7] | Plant response rating, Barnyardgrass [3, 9] | Plant response rating, Foxtail, Giant [4, 7] | Plant response rating, Foxtail, Giant [4, 8] | Plant response rating, Foxtail, Giant [4, 9] | Plant response rating, Foxtail, Giant [4, 10] | Plant response rating, Velvetleaf [5, 7] | Plant response rating, Velvetleaf [5, 9] | Plant response rating, Velvetleaf [5, 10] | Plant response rating, Pigweed [6, 9] | Plant response rating, Pigweed [6, 10]
25: Plant response rating, Pigweed [6, 7]
45: Plant response rating, Pigweed [6, 8]
5: Plant response rating, Barnyardgrass [3, 8]
35: Plant response rating, Morningglory [2, 8]
40: Plant response rating, Morningglory [2, 7]

CCOC(=O)Cc1nc(-c2ccc(Cl)cc2)nc(N)c1Cl [Compound 120]
15: Plant response rating, Barnyardgrass [3, 10]
20: Plant response rating, Pigweed [6, 7]
35: Plant response rating, Pigweed [6, 8]
55: Plant response rating, Morningglory [2, 8]
10: Plant response rating, Barnyardgrass [3, 7]
5: Plant response rating, Crabgrass [1, 8] | Plant response rating, Barnyardgrass [3, 9]
40: Plant response rating, Barnyardgrass [3, 8]
25: Plant response rating, Morningglory [2, 7]
65: Plant response rating, Velvetleaf [5, 8]
0: Plant response rating, Crabgrass [1, 7] | Plant response rating, Crabgrass [1, 9] | Plant response rating, Crabgrass [1, 10] | Plant response rating, Morningglory [2, 9] | Plant response rating, Morningglory [2, 10] | Plant response rating, Foxtail, Giant [4, 7] | Plant response rating, Foxtail, Giant [4, 8] | Plant response rating, Foxtail, Giant [4, 9] | Plant response rating, Foxtail, Giant [4, 10] | Plant response rating, Velvetleaf [5, 9] | Plant response rating, Velvetleaf [5, 10] | Plant response rating, Pigweed [6, 9] | Plant response rating, Pigweed [6, 10]
50: Plant response rating, Velvetleaf [5, 7]

COC(=O)c1nc(-c2ccc(SC)cc2)nc(N)c1Cl [Compound 121]
0: Plant response rating, Crabgrass [1, 7] | Plant response rating, Crabgrass [1, 8] | Plant response rating, Crabgrass [1, 9] | Plant response rating, Crabgrass [1, 10] | Plant response rating, Morningglory [2, 7] | Plant response rating, Morningglory [2, 9] | Plant response rating, Morningglory [2, 10] | Plant response rating, Barnyardgrass [3, 7] | Plant response rating, Barnyardgrass [3, 9] | Plant response rating, Barnyardgrass [3, 10] | Plant response rating, Foxtail, Giant [4, 7] | Plant response rating, Foxtail, Giant [4, 8] | Plant response rating, Foxtail, Giant [4, 9] | Plant response rating, Foxtail, Giant [4, 10] | Plant response rating, Velvetleaf [5, 7] | Plant response rating, Velvetleaf [5, 8] | Plant response rating, Velvetleaf [5, 9] | Plant response rating, Velvetleaf [5, 10] | Plant response rating, Pigweed [6, 7] | Plant response rating, Pigweed [6, 8] | Plant response rating, Pigweed [6, 9] | Plant response rating, Pigweed [6, 10]
10: Plant response rating, Morningglory [2, 8]
5: Plant response rating, Barnyardgrass [3, 8]

COC(=O)c1nc(-c2ccc(S(C)(=O)=O)cc2)nc(N)c1Cl [Compound 122]
0: Plant response rating, Crabgrass [1, 7] | Plant response rating, Crabgrass [1, 8] | Plant response rating, Crabgrass [1, 9] | Plant response rating, Crabgrass [1, 10] | Plant response rating, Morningglory [2, 7] | Plant response rating, Morningglory [2, 8] | Plant response rating, Morningglory [2, 9] | Plant response rating, Morningglory [2, 10] | Plant response rating, Barnyardgrass [3, 7] | Plant response rating, Barnyardgrass [3, 8] | Plant response rating, Barnyardgrass [3, 9] | Plant response rating, Barnyardgrass [3, 10] | Plant response rating, Foxtail, Giant [4, 7] | Plant response rating, Foxtail, Giant [4, 8] | Plant response rating, Foxtail, Giant [4, 9] | Plant response rating, Foxtail, Giant [4, 10] | Plant response rating, Velvetleaf [5, 7] | Plant response rating, Velvetleaf [5, 8] | Plant response rating, Velvetleaf [5, 9] | Plant response rating, Velvetleaf [5, 10] | Plant response rating, Pigweed [6, 7] | Plant response rating, Pigweed [6, 8] | Plant response rating, Pigweed [6, 9] | Plant response rating, Pigweed [6, 10]

COC(=O)c1nc(-c2ccc([S+](C)[O-])cc2)nc(N)c1Cl (stereo not drawn) [Compound 123]
20: Plant response rating, Morningglory [2, 8]
0: Plant response rating, Crabgrass [1, 7] | Plant response rating, Crabgrass [1, 8] | Plant response rating, Crabgrass [1, 9] | Plant response rating, Crabgrass [1, 10] | Plant response rating, Morningglory [2, 7] | Plant response rating, Morningglory [2, 9] | Plant response rating, Morningglory [2, 10] | Plant response rating, Barnyardgrass [3, 7] | Plant response rating, Barnyardgrass [3, 9] | Plant response rating, Barnyardgrass [3, 10] | Plant response rating, Foxtail, Giant [4, 7] | Plant response rating, Foxtail, Giant [4, 9] | Plant response rating, Foxtail, Giant [4, 10] | Plant response rating, Velvetleaf [5, 7] | Plant response rating, Velvetleaf [5, 8] | Plant response rating, Velvetleaf [5, 9] | Plant response rating, Velvetleaf [5, 10] | Plant response rating, Pigweed [6, 7] | Plant response rating, Pigweed [6, 8] | Plant response rating, Pigweed [6, 9] | Plant response rating, Pigweed [6, 10]
10: Plant response rating, Barnyardgrass [3, 8] | Plant response rating, Foxtail, Giant [4, 8]
